According to the supplement of paper PMC10307832:

Key:
Assay in all cases: relative viability (nuclei count vs DMSO), 5 days (fraction); higher = more cells survive
[1] = compound: C[C@@H](C(=O)N[C@@H](C1CCCCC1)C(=O)N2CCC[C@H]2C(=O)N[C@@H]3[C@@H](CC4=CC=CC=C34)OCC#CC#CCO[C@@H]5CC6=CC=CC=C6[C@@H]5NC(=O)[C@@H]7CCCN7C(=O)[C@H](C8CCCCC8)NC(=O)[C@H](C)NC)NC [AZD5582] + CC(=O)c1c(C)c2cnc(Nc3ccc(N4CCNCC4)cn3)nc2n(C2CCCC2)c1=O [Palbociclib] (partner 0.5 µM)
In short: (§1)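 Nuclei were stained with Hoechst during a one-step fixation (final 0.05% Triton X-100, 1% formaldehyde, 1 ug/ml Hoechst) carried out 5 days after dosing, then counted on 4× images. The cells, lung cancer lines in 1536-well plates, had been dosed by pin tool the day after seeding with one drug alone or a fixed anchor-drug dose plus five library-drug doses (not always all listed) in √10 steps. Relative viability is the nuclei count in treated wells divided by that in vehicle wells, and each value is the median of duplicate plates.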

[2] = compound: C[C@@H](C(=O)N[C@@H](C1CCCCC1)C(=O)N2CCC[C@H]2C(=O)N[C@@H]3[C@@H](CC4=CC=CC=C34)OCC#CC#CCO[C@@H]5CC6=CC=CC=C6[C@@H]5NC(=O)[C@@H]7CCCN7C(=O)[C@H](C8CCCCC8)NC(=O)[C@H](C)NC)NC [AZD5582] + CCNC(=O)c1noc(-c2cc(C(C)C)c(O)cc2O)c1-c1ccc(CN2CCOCC2)cc1 [Luminespib] (partner 0.01 µM)
In short: as §1

[3] = compound: C[C@@H](C(=O)N[C@@H](C1CCCCC1)C(=O)N2CCC[C@H]2C(=O)N[C@@H]3[C@@H](CC4=CC=CC=C34)OCC#CC#CCO[C@@H]5CC6=CC=CC=C6[C@@H]5NC(=O)[C@@H]7CCCN7C(=O)[C@H](C8CCCCC8)NC(=O)[C@H](C)NC)NC [AZD5582] + NC(=O)Nc1cc(-c2cccc(F)c2)sc1C(=O)N[C@H]1CCCNC1 [AZD7762] (partner 0.2 µM)
In short: as §1

[4] = compound: Cn1nnc2c(C(N)=O)ncn2c1=O [Temozolomide] + CC(=O)c1c(C)c2cnc(Nc3ccc(N4CCNCC4)cn3)nc2n(C2CCCC2)c1=O [Palbociclib] (partner 0.5 µM)
In short: as §1

| Cell Line | relative viability ([1]; first compound 0.001581 µM) | relative viability ([1]; first compound 0.005 µM) | relative viability ([1]; first compound 0.01581 µM) | relative viability ([1]; first compound 0.05 µM) | relative viability ([2]; first compound 0.001581 µM) | relative viability ([2]; first compound 0.005 µM) | relative viability ([2]; first compound 0.01581 µM) | relative viability ([2]; first compound 0.05 µM) | relative viability ([3]; first compound 0.001581 µM) | relative viability ([3]; first compound 0.005 µM) | relative viability ([3]; first compound 0.01581 µM) | relative viability ([3]; first compound 0.05 µM) | relative viability ([4]; first compound 0.2 µM) | relative viability ([4]; first compound 0.6325 µM) | relative viability ([4]; first compound 2 µM) | relative viability ([4]; first compound 6.325 µM) | relative viability ([4]; first compound 20 µM) |
| --- | --- | --- | --- | --- | --- | --- | --- | --- | --- | --- | --- | --- | --- | --- | --- | --- | --- |
| NCI-H1915 | 0.521 | 0.536 | 0.502 | 0.544 | 0.756 | 0.782 | 0.693 | 0.829 | 0.657 | 0.672 | 0.673 | 0.495 | 0.546 | 0.483 | 0.521 | 0.399 | 0.228 |
| NCI-H1944 | 0.274 | 0.319 | 0.309 | 0.43 | 0.64 | 0.714 | 0.757 | 0.802 | 0.316 | 0.523 | 0.475 | 0.581 | 0.335 | 0.341 | 0.345 | 0.341 | 0.298 |
| NCI-H1975 | 0.547 | 0.728 | 0.548 | 0.52 | 0.255 | 0.282 | 0.174 | 0.353 | 0.709 | 0.932 | 0.667 | 0.902 | 0.575 | 0.608 | 0.564 | 0.606 | 0.485 |
| NCI-H1993 | 0.564 | 0.558 | 0.655 | 0.664 | 0.848 | 1.02 | 0.888 | 0.946 | 0.694 | 0.867 | 0.7 | 1.03 | 0.558 | 0.772 | 0.618 | 0.755 | 0.589 |
| NCI-H2085 | 0.504 | 0.509 | 0.459 | 0.599 | 0.435 | 0.478 | 0.439 | 0.493 | 0.987 | 1.02 | 0.855 | 0.948 | 0.487 | 0.487 | 0.457 | 0.454 | 0.449 |
| NCI-H2087 | 0.188 | 0.23 | 0.225 | 0.241 | 0.171 | 0.135 | 0.176 | 0.148 | 1.21 | 1.27 | 1.17 | 1.13 | 0.254 | 0.239 | 0.224 | 0.259 | 0.225 |
| NCI-H2126 | 0.331 | 0.334 | 0.36 | 0.379 | 0.817 | 0.831 | 0.84 | 0.811 | 0.981 | 0.933 | 0.896 | 0.747 | 0.347 | 0.332 | 0.349 | 0.355 | 0.345 |
| NCI-H2170 | 0.37 | 0.388 | 0.364 | 0.492 | 0.798 | 0.606 | 0.626 | 0.786 | 0.813 | 0.884 | 0.88 | 1.04 |  | 0.398 | 0.368 | 0.375 | 0.264 |
| NCI-H2342 | 0.492 | 0.518 | 0.491 | 0.54 | 0.784 | 0.887 | 0.737 | 0.755 | 0.429 | 0.43 | 0.49 | 0.556 | 0.501 | 0.529 | 0.521 | 0.491 | 0.53 |
| NCI-H2347 | 0.43 | 0.392 | 0.447 | 0.416 | 0.616 | 0.239 | 0.262 | 0.692 | 0.724 | 0.558 | 0.666 | 0.713 | 0.442 | 0.473 | 0.388 | 0.408 | 0.474 |
| NCI-H2405 | 0.474 | 0.505 | 0.475 | 0.433 | 0.892 | 0.924 | 0.733 | 1.08 | 0.87 | 0.878 | 0.674 | 0.997 | 0.442 | 0.576 | 0.518 | 0.5 | 0.508 |
| NCI-H3122 | 0.197 | 0.185 | 0.181 | 0.143 | 0.0928 | 0.0812 | 0.0752 | 0.0956 | 0.899 | 0.988 | 1.01 | 0.306 | 0.206 | 0.202 | 0.175 | 0.174 | 0.153 |
| PC-3 [JPC-3] | 0.483 | 0.512 | 0.58 | 0.478 | 0.628 | 0.67 | 0.638 | 0.557 | 0.706 | 0.617 | 0.73 | 0.423 | 0.541 | 0.554 | 0.543 | 0.545 | 0.433 |
| PC-14 | 0.401 | 0.322 | 0.47 | 0.34 | 0.171 | 0.168 | 0.105 | 0.143 | 0.255 | 0.247 | 0.294 | 0.183 | 0.706 | 0.515 | 0.472 | 0.527 | 0.415 |
| RERF-LC-KJ | 0.354 | 0.494 | 1.03 | 0.27 |  |  | 1.22 | 1.06 | 0.2 | 0.414 | 0.855 | 0.491 | 1.02 | 1.1 | 1.11 | 1.17 | 1.02 |
| SW 900 | 0.443 | 0.566 | 0.531 | 0.435 | 0.168 | 0.169 | 0.208 | 0.188 | 0.539 | 0.491 | 0.544 | 0.31 | 0.598 | 0.612 | 0.556 | 0.559 | 0.468 |
